Several values for one entry are separate records, joined by “and”; a condition that tells them apart may be missing. Equal values may be shown once. Ends that are not written are not given here. * marks the point of attachment. Myristoyl = CCCCCCCCCCCCCC(=O)*

One assay addresses T. brucei PKA (Trypanosoma brucei brucei, UniProt Q9GU80). The assay can be described thus: In vivo PKA reporter assay (VASP Ser-157 phosphorylation, western blot).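 For % VASP phosphorylation: Phosphorylated VASP as percent of total VASP band signal.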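 For all read-outs here: T. brucei cells expressing human VASP as heterologous PKA substrate, compound exposure at 37 °C, western blot of phospho (50 kDa) versus unphosphorylated (46 kDa) VASP band.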 It is filed as cell-based. The note with it: for % VASP phosphorylation: independent replicates; for effect on in vivo PKA activity (VASP phosphorylation), in words: wild type background. (A reporter such as luciferase makes a cellular process visible.)

Assay [1] has as its target T. brucei PKAR-PKAC1 holoenzyme (Trypanosoma brucei, UniProt Q9GU80). Briefly: biochemical. It is filed as biochemical. The note with it: for In vitro kinase assay: technical replicates.
Assay [2] deals with T. brucei PKA holoenzyme (Ty1-PKAC1). It is filed as biochemical, Trypanosoma brucei. The note with it: for effect on basal kinase activity of immunoprecipitated holoenzyme, in words / in vitro kinase assay [CPM], average / in vitro kinase assay [CPM]: 1 mM; for in vitro kinase assay [CPM], PKI: 1 mM + 5 µM PKI(5-24); for in vitro kinase assay [CPM], PKI / in vitro kinase assay [CPM], average / in vitro kinase assay [CPM]: Supp Fig 3c; for in vitro kinase assay [CPM], average: average of 3; for in vitro kinase assay [CPM]: independent replicates.

T. brucei PKAR-PKAC1 holoenzyme, sequence (Q38DR5 entry or part of it): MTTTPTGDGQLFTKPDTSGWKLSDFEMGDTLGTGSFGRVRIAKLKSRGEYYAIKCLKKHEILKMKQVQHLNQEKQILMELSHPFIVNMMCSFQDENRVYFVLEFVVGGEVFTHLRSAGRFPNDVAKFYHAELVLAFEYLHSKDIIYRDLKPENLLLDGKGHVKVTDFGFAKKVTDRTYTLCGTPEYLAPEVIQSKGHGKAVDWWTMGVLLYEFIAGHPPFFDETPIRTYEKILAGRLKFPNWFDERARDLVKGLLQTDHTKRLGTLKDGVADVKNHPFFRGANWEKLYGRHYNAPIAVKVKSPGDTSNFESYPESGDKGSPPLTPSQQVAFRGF
T. brucei PKAR-PKAC1 holoenzyme, sequence (Q9GU80 entry or part of it): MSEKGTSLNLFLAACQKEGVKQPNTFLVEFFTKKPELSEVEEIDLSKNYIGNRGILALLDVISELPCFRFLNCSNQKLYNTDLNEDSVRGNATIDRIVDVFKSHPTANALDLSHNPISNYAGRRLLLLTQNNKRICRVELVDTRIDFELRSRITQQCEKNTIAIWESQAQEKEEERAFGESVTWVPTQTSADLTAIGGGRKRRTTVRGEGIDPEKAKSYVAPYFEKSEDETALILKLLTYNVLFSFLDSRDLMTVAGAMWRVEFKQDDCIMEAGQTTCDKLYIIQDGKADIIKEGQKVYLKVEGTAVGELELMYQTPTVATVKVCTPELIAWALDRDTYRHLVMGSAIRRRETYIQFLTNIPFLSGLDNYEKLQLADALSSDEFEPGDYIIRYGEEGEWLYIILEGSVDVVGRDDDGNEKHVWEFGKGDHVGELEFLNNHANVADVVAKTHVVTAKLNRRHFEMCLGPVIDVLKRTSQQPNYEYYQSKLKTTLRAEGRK
T. brucei PKA, sequence (Q38DS1 entry or part of it): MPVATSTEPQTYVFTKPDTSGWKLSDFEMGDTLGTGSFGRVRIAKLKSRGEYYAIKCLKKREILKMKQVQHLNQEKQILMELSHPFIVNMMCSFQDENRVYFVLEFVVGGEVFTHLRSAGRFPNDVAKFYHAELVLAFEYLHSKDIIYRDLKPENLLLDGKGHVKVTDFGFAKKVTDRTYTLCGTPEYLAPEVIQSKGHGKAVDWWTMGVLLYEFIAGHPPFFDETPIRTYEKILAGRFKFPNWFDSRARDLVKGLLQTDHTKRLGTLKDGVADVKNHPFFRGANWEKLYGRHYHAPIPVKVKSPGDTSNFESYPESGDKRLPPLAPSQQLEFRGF
T. brucei PKA, sequence (Q38DR5 entry or part of it, further chain): as the sequence (Q38DR5 entry or part of it) above
T. brucei PKA, sequence (Q9GU80 entry or part of it): as the sequence (Q9GU80 entry or part of it) above

Consider `CC(=O)OCOP1(=O)OC[C@H]2O[C@@H](n3cnc4c(=O)[nH]c(N)nc43)[C@H](O)[C@@H]2O1` (stereo partly shown) [cGMP-AM, Guanosine-3',5'-cyclic monophosphate, acetoxymethyl ester], for which the “% VASP phosphorylation” value is 34.8925% and 34.7802% and 32.2694% on T. brucei PKA (10 µM); 44.672% and 38.9969% and 29.3979% on T. brucei PKA (20 µM); 40.2424% and 33.9184% and 40.637% on T. brucei PKA (50 µM); 34.6686% and 36.9156% and 43.827% on T. brucei PKA (100 µM); 34.2202% and 37.453% and 36.5899% at T. brucei PKA (200 µM).

For `OCCN(CCO)c1nc(N2CCCCC2)c2nc(N(CCO)CCO)nc(N3CCCCC3)c2n1` [Dipyridamol], the “In vitro kinase assay” value in assay [1] (1 µM) is 0.38 U/ml and 0.36 U/ml; in assay [1] (100 µM), 0.31 U/ml and 0.36 U/ml; in assay [1] (1 mM), 0.38 U/ml and 0.41 U/ml.

In the case of “myr-PKI(14–22): myristoylated membrane-permeable peptide inhibitor of PKA (Myristoyl-SGRTGRRNA; UniProt P61925 14-22, looked up, fragment)”, in the assay with T. brucei PKA (depending on the inhibitor batch), the “VASP phosphorylation upon treatment with inhibitor alone” value is given as 3-10%. The “effect on in vivo PKA activity (VASP phosphorylation), in words” value (shortened to “effect on in vivo PKA activity”) in the assay with T. brucei PKA was “reduced the measured activity to background”.

For `Nc1nc2c(nc(Sc3ccc(Cl)cc3)n2[C@@H]2O[C@@H]3COP(=O)(O)O[C@H]3[C@H]2O)c(=O)[nH]1` [8-pCPT-cGMP, 8-(4-Chlorophenylthio)guanosine-3',5'-cyclic monophosphate], the “% VASP phosphorylation” value on T. brucei PKA (10 µM) was 25.8142% and 29.2369% and 19.6808%; at T. brucei PKA (50 µM), 27.9869% and 31.8421% and 17.4767%; at T. brucei PKA (100 µM) it was 30.4284% and 21.992% and 28.117%; at T. brucei PKA (250 µM), 30.7048% and 20.4067% and 21.3305%; at T. brucei PKA (1000 µM) it was 32.0969% and 20.8683% and 24.288%.

With `Nc1nc(Cl)nc2c1ncn2[C@@H]1O[C@H](CO)[C@@H](O)[C@H]1O` [2-Cl-Ado, 2-Chloroadenosine], the “effect on in vivo PKA activity” value at T. brucei PKA is listed as “no effect”.

Regarding `CO[C@@H]1[C@@H]2OP(=O)(O)OC[C@H]2O[C@H]1n1c(Sc2ccc(Cl)cc2)nc2c(N)ncnc21` [8-pCPT-2'O-me-cAMP], the “% VASP phosphorylation” value is 41.2113% and 39.9561% and 36.9456% at T. brucei PKA (10 µM); 34.7976% and 43.6436% and 30.9578% at T. brucei PKA (20 µM); 31.7213% and 39.4904% and 29.8481% at T. brucei PKA (50 µM); 33.7045% and 41.4368% and 33.2969% at T. brucei PKA (100 µM); 30.1497% and 39.413% and 35.4525% on T. brucei PKA (250 µM).

On to `Nc1nc2c(nc(Sc3ccc(Cl)cc3)n2[C@@H]2O[C@H](CO)[C@@H](O)[C@H]2O)c(=O)[nH]1` [8-pCPT-Guo, 8-(4-Chlorophenylthio)guanosine], for which, at T. brucei PKA, the “effect on in vivo PKA activity” value was “no effect”.

Turning to `Nc1ncnc2c1nc(Sc1ccc(Cl)cc1)n2[C@@H]1O[C@H](CO)[C@@H](O)[C@H]1O` [8-pCPT-Ado, 8-(4-Chlorophenylthio)adenosine], at T. brucei PKA, the “effect on in vivo PKA activity” value was “slight inhibitory”.

With `O=c1[nH]cnc2c1ncn2[C@@H]1O[C@@H]2COP(=O)(O)O[C@H]2[C@H]1O` [cIMP, inosine-3’,5’-cyclic monophosphate], in assay [2], the “effect on basal kinase activity of immunoprecipitated holoenzyme, in words” value (from here on “effect on basal kinase activity”) is on record as “did not show any significant effects”; the “in vitro kinase assay [CPM], PKI” value came to 620.6 CPM; the “in vitro kinase assay [CPM], average” value is reported as 7285.53 CPM; the “in vitro kinase assay [CPM]” value was 5568.4 CPM and 8615.56 CPM and 7672.63 CPM.

As usually defined, the EC50 is the concentration needed to bring the measured effect to its halfway point. Low readings indicate an effect from little substance, high ones a need for much substance. On to `Nc1ncnc2c1ccn2[C@@H]1O[C@H](CO)[C@@H](O)[C@H]1O` [Tubercidin, 7-Deazaadenosine], for which the “effect on in vivo PKA activity” value at T. brucei PKA is on record as “No effect”. The molecule also gave an EC50 in assay [1] of 5 ± 0.5 µM. The “In vitro kinase assay” value is 0.31 U/ml and 0.36 U/ml in assay [1] (0.1 µM); 0.36 U/ml and 0.39 U/ml in assay [1] (0.78 µM); 0.39 U/ml and 0.42 U/ml in assay [1] (1.56 µM); 0.51 U/ml and 0.54 U/ml in assay [1] (3.13 µM); 0.7 U/ml and 0.67 U/ml in assay [1] (6.25 µM); 0.84 U/ml and 0.75 U/ml in assay [1] (12.5 µM). The “In vitro kinase assay” value in assay [1] (25 µM) is 0.84 U/ml and 0.93 U/ml; in assay [1] (50 µM), 0.89 U/ml and 0.85 U/ml.

In the case of `Nc1ncnc2nc(Sc3ccc(Cl)cc3)[nH]c12` [8-pCPT-Ade, 8-(4-Chlorophenylthio)adenine], the “effect on in vivo PKA activity” value on T. brucei PKA is “no effect”.

For the molecule `CO[C@@H]1[C@H](O)[C@@H](CO)O[C@H]1n1c(Sc2ccc(Cl)cc2)nc2c(N)ncnc21` [8-pCPT-2-′O-Me-Ado, 8-(4-Chlorophenylthio)-2'-O-methyladenosine], the “effect on in vivo PKA activity” value on T. brucei PKA is “slight inhibitory”.

For the molecule `CO[C@@H]1[C@H](O)[C@@H](CO)O[C@H]1n1c(Sc2ccc(Cl)cc2)nc2c(N)ncnc21` [8-pCPT-2'O-me-Ado], the “% VASP phosphorylation” value is 17.7877% and 18.0048% and 22.1674% on T. brucei PKA (10 µM); 16.9524% and 18.6949% and 22.9783% on T. brucei PKA (20 µM); 17.4825% and 18.9639% and 23.6777% at T. brucei PKA (50 µM); 18.5972% and 20.7972% and 25.3942% at T. brucei PKA (100 µM); 20.7922% and 23.6499% and 24.007% at T. brucei PKA (250 µM).

On to `Nc1ncnc2c1cc(Br)n2[C@@H]1O[C@H](CO)[C@@H](O)[C@H]1O` [6-Br-Tu, 8-Bromo-7-deazaadenosine], for which, on T. brucei PKA, the “effect on in vivo PKA activity” value is recorded as “no effect”.

Regarding `CC(=O)OCOP1(=O)OC[C@H]2O[C@@H](n3cnc4c(N)ncnc43)[C@H](O)[C@@H]2O1` (stereo partly shown) [cAMP-AM, Adenosine-3',5'-monophosphate, acetoxymethyl ester], the “% VASP phosphorylation” value was 36.276% and 37.2% and 34.8195% at T. brucei PKA (10 µM); 33.4307% and 32.7356% and 35.3637% at T. brucei PKA (20 µM); 35.9017% and 33.7363% and 34.7458% at T. brucei PKA (50 µM); 35.4076% and 39.0007% and 33.2483% on T. brucei PKA (100 µM); 44.3984% and 35.5186% and 38.5924% on T. brucei PKA (200 µM). In addition, the “effect on in vivo PKA activity” value at T. brucei PKA was “No PKA activation”.

On to `OC[C@H]1O[C@@H](n2cnc3c(Cl)ncnc32)[C@H](O)[C@@H]1O` [6-Cl-PuR, 6-Chloropurine riboside], for which the “% VASP phosphorylation” value on T. brucei PKA (2 µM) was 27.0392% and 26.6154% and 24.2815%; at T. brucei PKA (5 µM) it was 24.7092% and 27.9877% and 23.4187%; on T. brucei PKA (10 µM) it was 20.6897% and 25.2945% and 23.0524%; at T. brucei PKA (20 µM) it was 24.6262% and 26.5882% and 23.4334%; at T. brucei PKA (50 µM), 28.7467% and 26.8897% and 25.4464%; at T. brucei PKA (100 µM), 33.239% and 35.1611% and 28.0731%. The “effect on in vivo PKA activity” value at T. brucei PKA was “no effect”.

On to `O=c1ccn([C@@H]2O[C@@H]3COP(=O)(O)O[C@H]3[C@H]2O)c(=O)[nH]1` [cUMP, uridine -3’,5’-cyclic monophosphate], for which, in assay [2], the “effect on basal kinase activity” value is “did not show any significant effects”; the “in vitro kinase assay [CPM], PKI” value worked out at 572.53 CPM; the “in vitro kinase assay [CPM], average” value is reported as 5670.69 CPM; the “in vitro kinase assay [CPM]” value was 4751.21 CPM and 5966.27 CPM and 6294.58 CPM.

On to `Nc1ncnc2c1nc(Br)n2[C@@H]1O[C@H](CO)[C@@H](O)[C@H]1O` [8-Br-Ado, 8-Bromoadenosine], for which the “effect on in vivo PKA activity” value at T. brucei PKA was “no effect”.

As for `O=c1[nH]c(=O)c2ncn(C3OC4COP(=O)(O)OC4C3O)c2[nH]1` (stereo not shown) [cXMP, xanthosine-3’,5’-cyclic monophosphate], in assay [2], the “effect on basal kinase activity” value is given as “did not show any significant effects”; the “in vitro kinase assay [CPM], PKI” value turned out to be 870.13 CPM; the “in vitro kinase assay [CPM], average” value is 6246.71 CPM; the “in vitro kinase assay [CPM]” value was 4909.43 CPM and 6708.76 CPM and 7121.93 CPM.

In the case of `COC1C2OP(=O)(O)OCC2OC1n1c(Sc2ccc(Cl)cc2)nc2c(=O)[nH]c(N)nc21` (stereo not shown) [8-pCPT-2'O-me-cGMP], the “% VASP phosphorylation” value was 38.4582% and 35.5972% and 37.6064% at T. brucei PKA (10 µM); 40.2883% and 38.6651% and 38.3333% on T. brucei PKA (20 µM); 40.3308% and 52.7132% and 36.328% on T. brucei PKA (50 µM); 39.4763% and 48.2408% and 35.1104% on T. brucei PKA (100 µM); 43.9368% and 67.0264% and 36.1457% on T. brucei PKA (250 µM).

Turning to `CO[C@@H]1[C@@H]2OP(=O)(O)OC[C@H]2O[C@H]1n1c(Sc2ccc(Cl)cc2)nc2c(N)ncnc21` [8-pCPT-2′-O-Me-cAMP, 8-(4-Chlorophenylthio)-2'-O-methyladenosine-3',5'-cyclic monophosphate], the “effect on in vivo PKA activity” value at T. brucei PKA was “No PKA activation”.

Turning to `Nc1ncnc2c1nc(Sc1ccc(Cl)cc1)n2[C@@H]1O[C@@H]2COP(=O)([O-])O[C@H]2[C@H]1O.[Na+]` [8-pCPT-cAMP, 8-(4-Chlorophenylthio)adenosine-3',5'-cyclic monophosphate], the “% VASP phosphorylation” value at T. brucei PKA (10 µM) is 24.5763% and 23.1009% and 28.0286%; at T. brucei PKA (50 µM), 16.5457% and 18.6378% and 24.8744%; on T. brucei PKA (100 µM) it was 10.9425% and 13.8058% and 25.7149%; on T. brucei PKA (250 µM) it was 9.807% and 10.2688% and 23.6208%; on T. brucei PKA (1000 µM), 10.7438% and 15.1961% and 19.6401%. Moreover, on T. brucei PKA, the “effect on in vivo PKA activity” value is “No PKA activation”.
